pEC50: −log10 of the molar value. Where two headings read alike, the source gives them in different places.
Legend:
Format in all cases: cell-based
[1] = tested on: HIV-1 with WT (wild type) RT in P4 cells; assay: Anti-HIV assay on P4 cell line, WT RT; conditions: for pEC50 / SI (selectivity index = CC50/EC50): P4 cell line, WT RT; for pEC50: read-out: EC50 WT
Protocol: For the antiviral and the cytotoxicity assays, the drugs were diluted in complete DMEM medium. In these experiments, drugs were diluted in triplicate wells in a 96-well plate in six, 5 fold serial dilutions.
Two days later, co-cultivation with SupT1 cells (a human T-cell lymphoma cell line) was initiated to facilitate rapid production of progeny virions. Production of virus was measured by using the Innotest HIV Antigen mAb p24 kit (Innogenetics). At the peak of production cultures were harvested and filtered. The virus stocks were stored at −80° C. until used.
Anti-HIV activity and cytotoxicity of the compounds were tested on a P4 cell line. […] The P4 cells were cultured in complete DMEM medium supplemented with 10% fetal bovine serum (FBS), 0.5% of Penicillin/Streptomycin and G418 at 0.5 mg/ml. Exponentially growing cells were trypsinized, centrifuged and split twice weekly at 5.10^4 cells/ml.
The P4 cells are HIV-infectible Hela-CD4 cells that carry the bacterial lacZ gene under the control of the HIV-1 long terminal repeat (LTR). In this cell line, transcription of the LacZ gene is driven by the HIV-1 LTR. […] In other words, in this system, the expression level of the β-galactosidase gene is proportional to the viral replication.
Briefly, in the anti-HIV assay 100 Ål of P4 cells were plated in 96-well plate at a concentration of 0.4 10^5 cells/ml and incubated at 37° C., 5% CO2. After 48 h, the medium was removed and 100 Ål of the different drugs dilutions were added to the cells. Four hours after the addition of the drugs all cells were infected with equal amount of cell-free virus, corresponding to 100 ng of HIV p24 antigen. After 48 h of incubation at 37° C., 5% CO2, β-galactosidase activity was measured using chlorophenol red-β-D-galactopyranoside assays.
Each assay was performed a minimum of three times. The 50% effective concentration (Ec50) was calculated from each dose response curve using the CurveExpert 1.3 software.

[2] = tested on: HIV-1 mutant Asn103/Ile108RT in MT4 cells; assay: Anti-HIV assay on MT4 cells, Asn103/Ile108RT double mutant
From the text: (§1) In order to introduce mutation(s) at the level of the pol gene coding for the RT in the pNL4-3 plasmid containing the complete viral genome (Adachi et al., 1986. J. Virol., Vol. 59 p 284-291) we used the “Quick change mutagenesis kit” (Stratagene). The following mutations were separately introduced in pNL4-3: L100I, K103N, V108I, Y181C, Y188C, and the double mutations K103N/V108I. These mutations were chosen because of the resistance that they confer to existing NNRTI. The production procedure of the mutant viral stocks is identical to the one described above.
(§2) Anti-HIV activity of the compounds was tested on MT-4 cell line. The MT-4 cell line (Larder et al. 1989. Sciences, Vol. 243 p 1731) was received from the NIH AIDS Research and Reference Reagent Program. These cells were cultured in RPMI medium supplemented with 10% fetal bovine serum (FBS), and 1% Penicillin/Streptomycin. The cultures were split regularly to keep cells densities between 0.3 to 1.2 10^6 cells/ml.
(§3) The MT-4 cells rapidly die upon infection by HIV. In this system there is an inverse correlation between cells survival and the amount of viral replication.
(§4) Briefly, in the anti-HIV assay exponentially growing MT-4 cells were infected with HIV-1. 100 μl of infected MT-4 cells were seeded in 96-well plate at a concentration of 0.4 10^5 cells/ml, and 100 μl of the different drugs dilutions were added to the cells. After 4 days of incubation at 37° C., 5% CO2, cells survival was measured using MTS (3-(4-5-dimethylthiazol-2-yl)-5-(−(3-carboxymethoxyphenyl)-2-(4-sulfophenyl)-2H-tetrazolium) assays. This compound is reduced by viable cells in a colored soluble formazan salt.
(§5) The absorbance was measured on a Benchmark™ Microplate Reader (Biorad) (λ=490 nm) and compared with 12 cell control replicates (nor virus nor drug added) and 12 virus control wells (no drug added). Each assay was performed a minimum of three times. The 50% effective concentration (EC50) was calculated from each dose response curve using the CurveExpert 1.3 software.

[3] = tested on: HIV-1 mutant Asn103/Ile108RT in TZM-bl cells; assay: Anti-HIV assay on TZM-bl cells, Asn103/Ile108RT double mutant; conditions: read-out: EC50 Asn103/Ile108RT TZM-bl
From the text: as §1
(§6) Anti-HIV activity and cytotoxicity of the compounds were tested on the TZM-b1 cell line. The TZM-b1 cell line (Wei et al. 2002. Antimicrob. Agents Chemother. Vol. 46, p 1896-1905) was received from the NIH AIDS Research and Reference Reagent Program. These cells were cultured in complete DMEM medium supplemented with 10% fetal bovine serum (FBS), and 1% Penicillin/Streptomycin. Exponentially growing cells were trypsinized, centrifuged and split twice weekly at 5 10^4 cells/ml.
(§7) The anti-HIV assay with TZM-b1 cells is essentially the same as described above with P4 cells. The main difference between the two cell lines is that the TZM-b1 cells express at their surface both the CD4 and CCR5 proteins, acting as receptor and co-receptor for HIV entry, respectively (Wei et al. 2002. Antimicrob. Agents Chemother. Vol. 46, p 1896-1905). This feature makes the cells very sensitive to infection by the virus. The TMZ-b1 cells were infected with equal amount of cell-free virus, corresponding to 10 ng of HIV p24 antigen. This amount is ten times lower than the amount used to infect the P4 cells.

[4] = tested on: HIV-1 mutant Asn103RT in MT4 cells; assay: Anti-HIV assay on MT4 cells, Asn103RT mutant
From the text: as §1, §2, §3, §4, §5

[5] = tested on: HIV-1 mutant Cys188RT in TZM-bl cells; assay: Anti-HIV assay on TZM-bl cells, Cys188RT mutant; conditions: read-out: EC50 Cys188RT TZM-bl
From the text: as §1, §6, §7

[6] = Human immunodeficiency virus 1, MT4, read-out: EC50 Asn103/Ile108RT MT4
[7] = Human immunodeficiency virus 1, TZM-bl
[8] = Human immunodeficiency virus 1, MT4, read-out: EC50 Asn103RT MT4
[9] = MT4, double mutant Asn103/Ile108RT
[10] = TZM-bl, double mutant Asn103/Ile108RT

| SMILES | pEC50 [1] | pEC50 [2, 6] | pEC50 ([1]; Human immunodeficiency virus 1) | pEC50 [4, 8] | pEC50 [5, 7] | SI (selectivity index = CC50/EC50) [1] | also measured |
| --- | --- | --- | --- | --- | --- | --- | --- |
| CCOC(=O)c1c(OC2CC(C)CC(C)C2)c(CC)c(C)[nH]c1=O (single isomer, unassigned) [Z37inv] | 7.44 |  |  |  |  |  | antiviral activity compared with Z37A or the mixture of stereoisomers [1]: higher than the activity observed for either Z37A or the mixture of stereoisomers |
| O=C1Nc2ccc(Cl)cc2[C@@](C#CC2CC2)(C(F)(F)F)O1 [Efavirenz, reference compound] |  | 5.92 | > 9.00 | 8.30 | > 9.00 |  | pEC50 [3, 7]: 6.82 |
| Cc1ccnc2c1NC(=O)c1cccnc1N2C1CC1 [Nevirapine, reference compound] |  |  | 7.54 | < 4.60 | 5.57 | 3448 | EC50 Asn103/Ile108RT MT4 [2, 9]: inactive |
| CCc1c(C)[nH]c(=O)c(CO)c1OC1CC(C)CC(C)C1 (stereo not shown) [Z45inv] | 7.64 |  |  |  |  |  |  |
| CCc1c(C)[nH]c(=O)c([N+](=O)[O-])c1OC1CC(C)CC(C)C1 (stereo not shown) [Z91inv, 3-nitro-5-ethyl-6-methyl-4-[(3,5-dimethylcyclohexyl)oxy]pyridine-2(1H)-one] |  | 5.00 | > 9.00 | 6.01 |  | >37200 |  |
| CCc1c(C)[nH]c(=O)c(CSC(C)=O)c1OC1CC(C)CC(C)C1 (stereo not shown) [Z114] | 8.15 |  |  |  |  |  | EC50 Asn103/Ile108RT MT4 [2, 9]: inactive; EC50 Asn103RT MT4 ([4]; MT4, mutant Asn103RT): inactive; pEC50 ([5]; TZM-bl, mutant Cys188RT): 9.00 |
| CCc1c(C)[nH]c(=O)c(N(C)C)c1OC1CC(C)CC(C)C1 (stereo not shown) [Z150, 3-(dimethylamino)-5-ethyl-6-methyl-4-[(3,5-dimethylcyclohexyl)oxy]pyridine-2(1H)-one] |  | 6.02 | > 9.00 | > 9.00 | > 9.00 | >66000 | pEC50 [3, 7]: 6.80 |
| CCc1c(C)[nH]c(=O)c(CN=[N+]=[N-])c1OC1CC(C)CC(C)C1 (stereo not shown) [Z153] | > 9.00 |  |  |  |  |  | pEC50 ([2]; MT4, double mutant Asn103/Ile108RT, read-out: EC50 Asn103/Ile108RT MT4): 5.46; pEC50 [3, 10]: 6.44; pEC50 ([4]; MT4, mutant Asn103RT, read-out: EC50 Asn103RT MT4): 6.82; pEC50 ([5]; TZM-bl, mutant Cys188RT): > 9.00 |
| CCc1c(C)[nH]c(=O)c(C)c1OC1CC(C)CC(C)C1 (stereo not shown) [Z154] | > 9.00 |  |  |  |  |  | pEC50 [3, 10]: 6.64 |

— US20070275953A1 (priority 2003, published 2007)
